Results taken from patent US20200178534A1, “INDUCTION OF FLORAL DEVELOPMENT IN PLANTS” (priority 2016, published 2020).

Legend:
[1] = test system: Arabidopsis thaliana, ecotype Columbia (Col-0) and attps7 knockout mutants; experiment: Height of the flowering inflorescence at 26 DAS after spraying T6P signalling precursor; type: in vivo; conditions: versus water control
Description: Right hand bars in each panel represent plants treated with 1 mM oNPE. Left hand bars in each panel represent plants treated with water (controls). […] This reflects the advancement of flowering by oNPE.
(§1) Seeds of Arabidopsis thaliana, ecotype Columbia (Col-0) and attps7 knockout mutants were surface-sterilized with 70% of ethanol for 2 min and 75% household bleach for 7 min, and grown on nutrient agar media (0.5×Murashige and Skoog plus Gamborg's vitamins (Sigma). 0.5% Sucrose and 0.7% Agar) in Petri plates. Seeds on the Petri plates were placed in a growth chamber (22° C., 150 μmol m^−2 s^−1, 16-h day). Seven days after plating, seedlings were transferred to pots of soil containing Rothamsted standard compost mix and full nutrition (one seedling per pot). Forty plants per A. thaliana type (n=40 Col-0, n=40 TPS7_3, n=40 TPS7_4.15) were grown at 22CC, 250 μmol m^−2 s^−1 irradiance, 16-h day. Eight days after sowing (DAS) plants were sprayed with 0.5 ml 1 mM oNPE-T6P (ortho-nitrphenyl)ethyl trehalose 6-phosphate dissolved in distilled water with the addition of 0.1% of Tween20 during the middle of the mid-photoperiod. Twenty-four hours after spraying (9 DAS), plants sprayed with 1 mM oNPE-T6P were exposed to 600 μmol m^−2 s^−1 irradiance for 1 h to release T6P from oNPE-T6P. Spraying was repeated at 12 and 16 DAS.
Height of the flowering inflorescence was then measured at 26 DAS. […]

[2] = test system: Arabidopsis thaliana, ecotype Columbia (Col-0) and attps7 knockout mutants; experiment: Appearance of flower buds / flowering time after spraying T6P signalling precursor; type: in vivo; set-up: key to flower bud had appeared (individual plant N): X: shown as crosses in highlighted boxes; conditions: for flower bud had appeared (individual plant N): 1 mM spray, day 5 after spraying
Description: In both cases it is possible to advance the development of the flowering inflorescence by several centimetres and advance flowering time by up to a week.
as §1
First, the appearance of the flower bud was quicker in plants sprayed with oNPE-T6P than with water.

Compound: CC(OP(=O)(OC[C@H]1O[C@H](O[C@H]2O[C@H](CO)[C@@H](O)[C@H](O)[C@H]2O)[C@H](O)[C@@H](O)[C@@H]1O)OC(C)c1ccccc1[N+](=O)[O-])c1ccccc1[N+](=O)[O-] (stereo partly drawn) [oNPE-T6P, 6-O-bis[1-(2-nitrophenyl)-ethoxyphosphoryl]-D-trehalose]
- height of the flowering inflorescence ([1]; Col-0, 1 mM): taller inflorescences
- height of the flowering inflorescence ([1]; tps7, 1 mM): taller inflorescences
- flower bud had appeared (individual plant N) ([2]; Col-0): X
- flower bud had appeared (individual plant N) ([2]; TPS7_3 mutant): X
- flower bud had appeared (individual plant N) ([2]; TPS7_4.15 mutant): X
- appearance of the flower bud compared with water ([2]; plants sprayed with 1 mM, versus water): quicker
